From patent publication US20240225066A1, “MOGROSIDE COMPOUNDS AND THEIR COMESTIBLE USE” (Firmenich Incorporated, priority 2021, published 2024) come the findings set out here.

The target in the assay is T1, recombinant human sweet receptor (Homo sapiens, UniProt Q7RTX0+Q8TE23).
T1 construct: expressed in transfected cells
T1 sequence (Q8TE23 20-839): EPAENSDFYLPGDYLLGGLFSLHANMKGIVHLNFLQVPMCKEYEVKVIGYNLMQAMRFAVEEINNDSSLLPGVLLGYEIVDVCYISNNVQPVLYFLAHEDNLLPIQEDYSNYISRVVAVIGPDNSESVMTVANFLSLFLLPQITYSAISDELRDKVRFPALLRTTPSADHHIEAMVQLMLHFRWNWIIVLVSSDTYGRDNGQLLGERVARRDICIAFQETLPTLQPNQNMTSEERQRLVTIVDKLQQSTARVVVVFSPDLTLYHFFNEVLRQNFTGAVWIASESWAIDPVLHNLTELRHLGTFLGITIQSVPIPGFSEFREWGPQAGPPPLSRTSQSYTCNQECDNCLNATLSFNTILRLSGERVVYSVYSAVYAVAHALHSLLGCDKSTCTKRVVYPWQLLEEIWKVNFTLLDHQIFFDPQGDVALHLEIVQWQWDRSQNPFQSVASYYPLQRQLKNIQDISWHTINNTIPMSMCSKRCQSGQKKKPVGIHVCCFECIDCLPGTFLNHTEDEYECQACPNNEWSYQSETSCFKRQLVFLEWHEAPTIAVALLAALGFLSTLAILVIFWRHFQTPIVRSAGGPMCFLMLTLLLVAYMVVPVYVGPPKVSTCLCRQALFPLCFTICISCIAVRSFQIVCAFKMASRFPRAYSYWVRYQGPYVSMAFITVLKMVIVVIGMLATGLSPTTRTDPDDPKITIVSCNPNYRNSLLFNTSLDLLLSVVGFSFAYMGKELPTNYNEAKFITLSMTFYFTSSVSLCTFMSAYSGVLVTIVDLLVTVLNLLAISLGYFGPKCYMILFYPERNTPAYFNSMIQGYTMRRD
T1 sequence (Q7RTX0 21-852): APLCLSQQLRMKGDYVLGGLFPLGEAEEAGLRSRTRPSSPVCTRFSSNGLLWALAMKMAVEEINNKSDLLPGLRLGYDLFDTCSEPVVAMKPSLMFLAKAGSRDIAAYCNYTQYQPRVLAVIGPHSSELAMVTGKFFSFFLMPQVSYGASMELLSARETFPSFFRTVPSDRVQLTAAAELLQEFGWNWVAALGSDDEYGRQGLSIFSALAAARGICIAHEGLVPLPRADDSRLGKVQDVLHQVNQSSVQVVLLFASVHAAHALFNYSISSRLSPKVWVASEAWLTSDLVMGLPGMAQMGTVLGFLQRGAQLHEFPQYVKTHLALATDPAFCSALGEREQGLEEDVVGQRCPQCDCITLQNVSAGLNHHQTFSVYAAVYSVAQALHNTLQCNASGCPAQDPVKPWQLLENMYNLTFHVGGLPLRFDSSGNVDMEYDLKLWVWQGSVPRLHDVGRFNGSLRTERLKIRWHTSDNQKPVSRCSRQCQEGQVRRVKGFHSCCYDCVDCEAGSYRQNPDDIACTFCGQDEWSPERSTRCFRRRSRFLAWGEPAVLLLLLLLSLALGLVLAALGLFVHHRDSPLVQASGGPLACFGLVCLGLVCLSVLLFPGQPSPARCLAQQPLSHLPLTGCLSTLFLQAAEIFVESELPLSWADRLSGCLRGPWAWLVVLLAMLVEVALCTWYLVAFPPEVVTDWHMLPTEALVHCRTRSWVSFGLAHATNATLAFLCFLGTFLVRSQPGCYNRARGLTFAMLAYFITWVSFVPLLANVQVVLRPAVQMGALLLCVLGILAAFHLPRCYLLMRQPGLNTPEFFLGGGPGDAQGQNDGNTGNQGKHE
The assay can be described thus: Sweet receptor assay, calcium imaging (Fluo-4 AM) in cells stably expressing the receptor and chimeric G-protein G16g25. The class given is cell-based. As to the method:
Cells stably expressing the recombinant human sweet receptor and the chimeric G-protein G16g25 were dispensed in a 384-well clear bottom plate (Fisher) and incubated overnight at 37° C. and 6% CO2. On the day of the experiment, cells were loaded with 4 μM of the calcium indicator Fluo-4 AM (Invitrogen) in D-PBS for 1 hour at room temperature and excess dye washed away with D-PBS, leaving a residual volume of 25 μL/well. After 30 minutes of rest time the cell plate and the compound plate were transferred into a fluorometric imaging plate reader (Molecular Devices). To determine potency, compound plates were prepared with serial dilutions of compound at 2× the final assay concentration in D-PBS. Imaging and data analysis was performed according to the procedures set forth in Servant et al., PROC. NAT'L ACAD. SCI. USA, vol. 107(10), pp. 4746-51 (2010).

Consider `C[C@H](CC[C@@H](O[C@@H]1O[C@H](CO[C@H]2O[C@H](CO)[C@@H](O)[C@H](O)[C@H]2O)[C@@H](O)[C@H](O)[C@H]1O[C@@H]1O[C@H](CO)[C@@H](O)[C@H](O)[C@H]1O)C(C)(C)O)[C@H]1CC[C@@]2(C)C3CC=C4[C@@H](CC[C@H](O[C@@H]5O[C@H](CO)[C@@H](O[C@@H]6O[C@H](CO)[C@@H](O)[C@H](O)[C@H]6O)[C@H](O)[C@H]5O)C4(C)C)[C@]3(C)[C@H](O)C[C@]12C` (some centres unmarked) [MC1], for which the 50% effective concentration (EC50) – broadly, the concentration giving half of the maximal effect – (Fluo-4 AM calcium signal, fluorometric imaging plate reader, read-out: EC50 of the dose-response curve in the sweet taste assays) was 8 µM. Further, under “serial dilutions of compound”, the “dose-response effect in the sweet taste assays” value was “showed a dose-response effect indicative of its utility as a sweetener”.
